The numbers were not newly measured in patent US11712576B2, “Method and apparatus for cancer treatment” (Minnesota Medical Physics LLC, priority 2018, dated 2023), which cites them from elsewhere.

Series [1] concerns cancer cells.
The conditions of series [2]: oral doses of 4 mg twice a day over a week period.
Series [3] deals with melanoma, colon, prostate carcinoma, lymphoma, pancreatic and hepatocellular carcinomas.
Series [4] concerns human glioblastoma U87MG cancer cells. The settings on record: agonist 100 nM combined with EFS (Helmholtz coils).
For series [5], the system named is tumor. The settings on record: concentration of 100 μM.
For series [6], the system named is BBB.
In series [7] the target is adenosine receptor A2aAR (Homo sapiens, UniProt P29274).
Sequence of adenosine receptor A2aAR (P29274 whole entry): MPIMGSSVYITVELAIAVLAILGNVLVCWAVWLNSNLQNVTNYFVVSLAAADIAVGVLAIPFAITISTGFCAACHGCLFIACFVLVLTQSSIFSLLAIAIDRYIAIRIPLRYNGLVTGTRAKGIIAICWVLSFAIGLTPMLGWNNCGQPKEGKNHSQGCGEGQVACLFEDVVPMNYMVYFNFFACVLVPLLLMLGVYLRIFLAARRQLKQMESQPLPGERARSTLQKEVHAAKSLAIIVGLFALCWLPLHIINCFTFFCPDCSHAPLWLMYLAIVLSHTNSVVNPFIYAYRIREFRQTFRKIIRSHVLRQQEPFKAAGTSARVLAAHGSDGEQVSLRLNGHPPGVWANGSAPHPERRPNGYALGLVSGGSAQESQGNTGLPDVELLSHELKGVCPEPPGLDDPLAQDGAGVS
Series [8] has as its system lung cancer cells Lu-65. Particulars: highest concentrations in mM range (0.01-10 mM tested), 48 hours.

Consider `CNC(=O)[C@H]1O[C@@H](n2cnc3c(NCc4cccc(I)c4)ncnc32)[C@H](O)[C@@H]1O` [CF101], for which the “apoptosis of cancer cells (normal cells refractory)” value in series [1] is “induce apoptosis of cancer cells”. Besides, the tolerability entry in series [2] is “well tolerated”.

With `CNC(=O)[C@H]1O[C@@H](n2cnc3c(NCc4cccc(I)c4)nc(Cl)nc32)[C@H](O)[C@@H]1O` [CI-IB-MECA], in series [3], the “effect on metastases, migrating mobility and proliferation of cancer cells” value is “reduction of metastases, migrating mobility of cancer cells and inhibition of proliferation”. In addition, in series [4], the “increase in apoptosis attributed to EFS over agonist alone” value is on record as 25-30%. Also, in series [5], the “effect on tumor growth” value is reported as “only a slowdown of tumor growth”. Further, the “apoptosis of cancer cells (normal cells refractory)” value in series [1] is “induce apoptosis of cancer cells”. As to `CNC(=O)[C@H]1O[C@@H](n2cnc3c(NCc4cccc(I)c4)ncnc32)[C@H](O)[C@@H]1O` [IB-MECA], the “effect on metastases, migrating mobility and proliferation of cancer cells” value in series [3] is “reduction of metastases, migrating mobility of cancer cells and inhibition of proliferation”. As to `CNC(=O)c1cnn(-c2nc(N)c3ncn([C@@H]4O[C@H](CO)[C@@H](O)[C@H]4O)c3n2)c1` [Lexiscan], the side effects entry in series [6] (doses used for cardiac perfusion) is on record as “strong, sometimes life-threatening side effects”. Moreover, the “permeation of the BBB” value in series [6] (in vivo) is reported as “substantial permeation of the BBB”.

In the case of `Nc1nc2c(cnn2CCc2ccccc2)c2nc(-c3ccco3)nn12` [SCH-58261], the “selectivity for A2aAR over the other adenosine receptors” value in series [7] is given as “more than 50 fold”. For the compound `Nc1ncnc2c1ncn2[C@@H]1O[C@H](CO)[C@@H](O)[C@H]1O` [adenosine], the cancer cells destroyed in series [8] is 100%.
